Test results taken from PubChem BioAssay AID2811 (Southern Research Specialized Biocontainment Screening …, 2010).
The source made the active and inactive calls. The rule behind the calls is not given here.

Test system: S. Typhi WT vs phoP-, polymyxin IC50 shift, OD600 24 h
Test: polymyxin IC50 shift in S. Typhi, Salmonella typhi, set 2 (AID 2811)
Conditions: stronger effect = lower value; for polymyxin IC50 shift difference (WT - phoP-) / polymyxin IC50 shift: at 150 µM
[1] = measured here: phoP- strain shift
[2] = measured here: wild-type strain shift

SMILES | polymyxin IC50 (WT polymyxin IC50 at 150 uM) [µM] | polymyxin IC50 shift difference (WT - phoP-) | polymyxin IC50 shift [1] | polymyxin IC50 shift [2] | polymyxin IC50 (phoP- polymyxin IC50 at 150 uM) [µM]
COc1cccc(C2Sc3ccccc3NC3=C2C(=O)c2ccccc23)c1 (centres undefined) | 2.58 | -3.66 (inactive) | 4.99 | 1.33 | 11.2
CCn1cc(C(=O)O)c(=O)c2cc(F)c(N3CCN(C(=S)Nc4ccccc4C(F)(F)F)CC3)cc21 | 2.53 | -9.73 (inactive) | 9.16 | -0.568 | 2.76
COc1ccc(CNC(=S)Nc2ccncc2)cc1 | 5.14 | -2.86 (inactive) | -0.186 | -3.04 | 4.55
O=C1C2=C(Nc3ccccc3SC2c2ccsc2)c2ccccc21 (centres undefined) | 21.5 | -25.9 (inactive) | 6.12 | -19.7 | –
O=C1C2=C(Nc3ccccc3SC2c2ccc(I)cc2)c2ccccc21 (centres undefined) | 25.8 | -8.99 (inactive) | 1.81 | -7.18 | 0.04
O=C(Nc1ccc(Br)cc1)N1CCCN(Cc2ccccc2F)C1 | 7.08 | -5.49 (inactive) | 1.55 | -3.93 | 2.62
